1 compound from patent US20090215826A1, “SOLID FORMS OF A PYRROLIDINE-3,4-DICARBOXAMIDE DERIVATIVE” (priority 2007, published 2009) can be followed below.

This data set is described as follows: Storage stability of crystalline form B (HPLC, IR, XRPD). Type of data set: physicochemical. Particulars: storage for 1 year up to 40° C./75% rh. As for the experimental part:
“IR” is used herein as an acronym of Infra Red spectroscopy. IR spectra were recorded as film of a Nujol suspension of approximately 5 mg of sample and few Nujol between two sodium chloride plates, with an FTIR spectrometer in transmittance. The Spectrometer is a Nicolet™ 20SXB or equivalent (resolution 2 cm^−1, 32 or more coadded scans, MCT detector).
“XRPD (is used herein as an acronym of X-Ray Powder Diffraction)” X-ray diffraction patterns were recorded at ambient conditions in transmission geometry with a STOE STADIP diffractometer (Cu Kα radiation, primary monochromator, position sensitive detector, angular range 3° to 42° 2 Theta, approximately 60 minutes total measurement time). The samples were prepared and analyzed without further processing (e.g. grinding or sieving) of the substance. “TGA (is used herein as an acronym of ThermoGravimetric Analysis)” was performed on a Mettler-Toledo™ thermogravimetric analyzer (TGA850 or TGA851). System suitability tests and calibrations were carried out according to the internal standard operation procedure.
The Form B has been characterized with IR and XRPD. The chemical stability was measured by HPLC (high performance liquid chromatography).

In the case of `O=C(Nc1ccc(Cl)cn1)[C@H]1CN(CC(F)F)C[C@@H]1C(=O)Nc1ccc(-n2ccccc2=O)cc1F` [Form B, (3R,4R)-1-(2,2-Difluoroethyl)-pyrrolidine-3,4-dicarboxylic acid 3-[(5-chloro-pyridin-2-yl)-amide] 4-{[2-fluoro-4-(2-oxo-2H-pyridin-1-yl)-phenyl]-amide}], the “chemical stability (degradation) measured by HPLC” value is on record as “No significant degradation”; the “crystal form compared to the initial analysis (IR and XRPD)” value is on record as “has not been changed”.
